Measured values reported in patent USRE49816E1, “Dipeptides as inhibitors of human immunoproteasomes” (CORNELL UNIVERSITY, priority 2014, dated 2024).

What was measured:
[1] = molecular target: hu c-20S β5c-subunit (Homo sapiens, UniProt P20618+P28074); test: N,C-capped dipeptides IC50, succ-LLVY-AMC fluorescence assay; assay type: biochemical
Experimental: (§1) All inhibitory assays for N,C capped dipeptides were performed in a black solid-bottom 96-well plate. In general, compound plates were prepared starting from 10 mM in 3× series dilution to 15 μM. 1 μl of DMSO stock was transferred to a black 96-well plate and 100 μL of reaction mixture were added 15 μM N-acetyl-Alanine-Asparagine-Tryptophan-7-amino-4-methylcourmarin (Ac-ANW-AMC) or 25 μM succinyl-Leucine-Leucine-Valine-Tyrosine-7-amino-4-methyl-courmarin (succ-LLVY-AMC), 0.4 nM hu i-20S β5i-subunit or 0.2 nM hu c-20S β5c-subunit, 0.02% SDS, 1% BSA, 0.5 mM EDTA in 20 mM HEPES buffer at pH7.5. The plates were then spun at 1000 rpm for 1 minute, and the fluorescence units of each well were recorded at λex=360 nm, λem=460 nm for 2 hours. The slopes of the initial linear range of the time course were used to calculate the velocity, and relative activities were normalized to the velocities of the DMSO control.

[2] = molecular target: hu i-20S β5i-subunit (Homo sapiens, UniProt P20618+P28062); test: N,C-capped dipeptides IC50, Ac-ANW-AMC fluorescence assay; assay type: biochemical; settings: for SI (selectivity index): Hu c-20S over Hu i-20S
Experimental: as §1

[3] = tested on: Karpas 1106p cells; test: Cytotoxicity (LD50) against Karpas lymphoma cells; assay type: cell-based, human; settings: Table 3
Source text: Table 3 lists the inhibition kinetic parameters, selectivity index, and calculated log Ps of selected dipeptides.

[4] = tested on: proteasome inside the Karpas 1106p cells; test: Cell-based Proteasome-Glo assay after compound removal; set-up: species or system human; settings: 4 hours, read-out: Proteasome-glo β5-IC50
[5] = tested on: Karpas 1106p cells; test: Cytotoxicity (LD50) against Karpas lymphoma cells; assay type: cell-based, human; settings: Table 4

| SMILES | IC50 [1] [nM] | IC50 [2] [nM] | SI (selectivity index) [2] | LD50 [3] [µM] | IC50 [4] [nM] | LD50 Karpas [5] [µM] |
| --- | --- | --- | --- | --- | --- | --- |
| COC[C@H](NC(=O)CCc1ccccc1)C(=O)N[C@@H](C)C(=O)NCc1cccc2ccccc12 [DPLG-2048, (S)-3-methoxy-N—((S)-1-((naphthalen-1-ylmethyl)amino)-1-oxopropan-2-yl)-2-(3-phenylpropanamido)propanamide] | 59800 | 34900 | 1.7 | >100 |  |  |
| COC[C@H](NC(=O)CCc1ccccc1)C(=O)N[C@@H](Cc1ccc(F)cc1)C(=O)NCc1cccc2ccccc12 [DPLG-2054, (S)-3-(4-fluorophenyl)-2-((S)-3-methoxy-2-(3-phenylpropanamido)propanamido)-N-(naphthalen-1-ylmethyl)propanamide] | 75800 | > 100000 | <0.8 | >100 |  |  |
| C[C@H](NC(=O)[C@H](CC(=O)NOC(C)(C)C)NC(=O)CCc1ccccc1)C(=O)NCc1cccc2ccccc12 [DPLG-2058] |  |  |  | 34.4 | 9 | 34.4 |
| C[C@H](NC(=O)[C@H](CC(=O)NOC(C)(C)C)NC(=O)CCc1ccccc1)C(=O)NCc1ccnc2ccccc12 [DPLG-2068, (S)—N^4-(tert-butoxy)-N^1—((S)-1-oxo-1-((quinolin-4-ylmethyl)amino)propan-2-yl)-2-(3-phenylpropanami-do)succinamide] | 28400 | 3060 | 9.3 | >100 |  |  |
| C[C@H](NC(=O)[C@H](CC(=O)NOC(C)(C)C)NC(=O)CCc1ccccc1)C(=O)NCc1cccc2ncccc12 [DPLG-2073, (S)—N^4-(tert-butoxpropan-2-yl)-2-(3-phenylpropanami-do)succinamide] | 13300 | 1370 | 10 | >100 |  |  |
| C[C@H](NC(=O)[C@H](CC(=O)NOC(C)(C)C)NC(=O)c1cnccn1)C(=O)NCc1cccc2ccccc12 [DPLG-2098] |  |  |  | >100 |  |  |
| CC(=O)N[C@@H](Cc1ccc(F)cc1)C(=O)NCc1cccc2ccccc12 [DPLG-2109] | > 100000 | 57100 | >2 | >100 |  |  |
| C[C@H](NC(=O)[C@H](CC(=O)NOC(C)(C)C)NC(=O)Cc1ccccc1)C(=O)NCc1cccc2ccccc12 [DPLG-2142, (S)—N4-(tert-butoxy)-N1-((S)-1-((naphthalen-1-ylmethyl)amino)-1-oxopropan-2-yl)-2-(2-phenylacetamido)succinamide] |  |  |  | 9.1 |  |  |
| COC[C@H](NC(=O)[C@H](CC(=O)NOC(C)(C)C)NC(=O)CN1CCOCC1)C(=O)NCc1cccc2ccccc12 [DPLG-2143, (S)—N^4-(tert-butoxy)-N^1—((S)-3-methoxy-1-((naphthalen-1-ylmethyl)amino)-1-oxopropan-2-yl)-2-(2-morpholinoacetamido)succinamide] | 19600 | 250 | 78 | >100 |  |  |
| COC[C@H](NC(=O)[C@H](CC(=O)NOC(C)(C)C)NC(=O)c1cc(C)on1)C(=O)NCc1cccc2ccccc12 [DPLG-2144, (S)—N^4-(tert-butoxy)-N^1—((S)-3-methoxy-1-((napthalen-1-ylmethyl)amino)-1-oxopropan-2-yl)-2-(5-methylisoxazole-3-carboxamido)succinamide] | 620 | 9 | 69 | 1.47 |  |  |
| COC[C@H](NC(=O)[C@H](CC(=O)NOC(C)(C)C)NC(=O)CCc1ccccc1)C(=O)NCc1cccc(OC)c1OC [DPLG-2211] | 1280 | 245 | 5 | 4.18 |  |  |
| COC[C@H](NC(=O)[C@H](CC(=O)NC1COC1)NS(C)(=O)=O)C(=O)NCc1cccc2ccccc12 [DPLG-2219, (S)—N^1—((S)-3-methoxy-1-((naphthalen-1-ylmethyl)amino)-1-oxopropan-2-yl)-2-(methylsulfonamido)-N^4-(oxetan-3-yl)succinamide] | > 100000 | 4730 | >21 | >100 |  |  |
| COC[C@H](NC(=O)[C@H](CC(=O)NOC(C)(C)C)NC(=O)CCc1ccccc1)C(=O)NCc1cccc2cccnc12 [DPLG-2220] | 1350 | 70 | 19 | 6.27 |  |  |
| COC[C@H](NC(=O)[C@H](CC(=O)NOC(C)(C)C)NC(=O)Cc1ccccc1)C(=O)NCc1cccc2ccccc12 [DPLG-2222, (S)—N^4-(tert-butoxy)-N^1—((S)-3-methoxy-1-((naphthalen-1-ylmethyl)amino)-1-oxopropan-2-yl)-2-(2-phenylacetamido)succinamide] | 738 | 11 | 70 | >100 |  |  |
| COC[C@H](NC(=O)[C@H](CC(=O)NOC(C)(C)C)NC(=O)CCCc1ccccc1)C(=O)NCc1cccc2ccccc12 [DPLG-2223, (S) N^4-(tert-butoxy)-N^1—((S)-3methoxy-1-((naphthalen-1-ylmethyl)amino)-1-oxopropan-2-yl)-2-(4-phenylbutanamido)succinamide] | 767 | 6.5 | 118 | 4.47 |  |  |
| CC(C)[C@H](NC(=O)[C@H](CC(=O)NOC(C)(C)C)NC(=O)CCc1ccccc1)C(=O)NCc1cccc2ccccc12 [DPLG-2224, (S)—N^4-(tert-butoxy)-N^1—((S)-3-methyl-1-((naphthalen-1-ylmethyl)amino)-1-oxobutan-2-yl)-2-(3-phenylpropanamido)succinamide] | 228 | 4.3 | 53 | >100 |  |  |

| SMILES | IC50 [1] [nM] | IC50 [2] [nM] | SI (selectivity index) [2] | LD50 [3] [µM] | IC50 [4] [nM] | LD50 Karpas [5] [µM] |
| --- | --- | --- | --- | --- | --- | --- |
| COC[C@H](NC(=O)[C@H](CC(=O)NOC(C)(C)C)NC(=O)CCc1ccccc1)C(=O)NCc1cccc2c1NCCC2 [DPLG-2226, (S)—N^4-(tert-butoxy)-N^−1—((S)-3-methoxy-1-oxo-1-(((1,2,3,4-tetrahydroquinolin-8-yl)methyl)amino)propan-2-yl)-2-(3-phenylpropanamido)succinamide] | 78100 | 1150 | 68 | >100 |  |  |
| COC[C@H](NC(=O)[C@H](CC(=O)NC1COC1)NS(=O)(=O)c1ccc(C)cc1)C(=O)NCc1cccc2ccccc12 [DPLG-2229] | 19300 | 69 | 236 | >100 |  |  |
| COC[C@H](NC(=O)[C@H](CC(=O)NC(C)(C)C)NC(=O)CCc1ccccc1)C(=O)NCc1cccc2ccccc12 [DPLG-2230, (S)—N^4-(tert-butyl)-N^1—((S)-3-methoxy-1-((naphthalen-1-ylmethyl)amino)-1-oxopropan-2-yl)-2-(3-phenylpropanamido)succinamide] |  |  |  | 1.11 |  |  |
| COC[C@H](NC(=O)[C@H](CC(=O)NC(C)(C)C)NC(=O)c1cc(C)on1)C(=O)NCc1cccc2ccccc12 [DPLG-2244, (S)—N^4-(tert-butyl)-N^1((S)-3-methoxy-1-((naphthalen-1-ylmethyl)amino)-1-oxopropan-2-yl)-2-(5-methylisoxazole-3-carboxamido)succinamide] |  |  |  | 2.20 |  |  |
| C[C@H](NC(=O)[C@H](CCC(=O)NC(C)(C)C)NC(=O)CCc1ccccc1)C(=O)NCCc1cccc2ccccc12 [DPLG-3012] | 9650 | 930 | 10.4 | 4.16 |  |  |
| C[C@H](NC(=O)[C@H](CCC(=O)NC(C)(C)C)NC(=O)CCc1ccccc1)C(=O)NOc1ccccc1 [DPLG-3013] | 660 | 230 | 2.9 | 11.03 |  |  |
| Cc1ccc(S(=O)(=O)N[C@@H](CCC(=O)NC(C)(C)C)C(=O)N[C@@H](C)C(=O)NCc2cccc(C(F)(F)F)c2)cc1 [DPLG-3014] | 420 | 25 | 17 | 0.96 |  |  |
| Cc1ccc(S(=O)(=O)N[C@@H](CCC(=O)NC(C)(C)C)C(=O)N[C@@H](C)C(=O)NOc2ccccc2)cc1 [DPLG-3017] | 600 | 99 | 6 | 6.33 |  |  |
| C[C@H](NC(=O)[C@H](CC(=O)NC(C)(C)C)NC(=O)C(=O)c1c[nH]c2ccccc12)C(=O)NCc1cccc2ccccc12 [DPLG-3053] |  |  |  | 0.22 |  |  |
| CC(C)(C)NC(=O)C[C@H](NC(=O)CCc1ccccc1)C(=O)N[C@@H](Cc1ccc(F)cc1)C(=O)NCc1cccc2ccccc12 [DPLG-3066] | > 100000 | 5.3 | >19000 | 0.198 |  |  |
| CC(C)(C)NC(=O)CC[C@H](NC(=O)CCc1ccccc1)C(=O)N[C@@H](Cc1ccc(F)cc1)C(=O)NCc1cccc2ccccc12 [DPLG-3083] | 300 | 3.3 | 90 | 1.20 |  |  |
| CC(C)(C)NC(=O)C[C@H](NC(=O)C(=O)c1c[nH]c2ccccc12)C(=O)N[C@@H](Cc1ccc(F)cc1)C(=O)NCc1cccc2ccccc12 [DPLG-3084] | 37 | 1.4 | 26 | 0.084 |  |  |
| CC(C)(C)NC(=O)C[C@H](NC(=O)CCc1ccccc1)C(=O)N[C@@H](Cc1ccncc1)C(=O)NCc1cccc2ccccc12 [DPLG-21033] | 438 | 5.3 | 83 |  |  |  |
| CC(C)(C)NC(=O)C[C@H](NC(=O)CCc1ccccc1)C(=O)N[C@@H](Cc1ccc(F)cc1)C(=O)NCc1ccc(-c2ccccc2)cc1 [DPLG-21049] | 700 | 133 | 5 |  |  |  |
| CC(C)(C)NC(=O)C[C@H](NC(=O)CCc1ccccc1)C(=O)N[C@@H](Cc1ccc(F)cc1)C(=O)NCc1cccc(-c2ccccc2)c1 [DPLG-21050] | > 100000 | 26 | >3846 |  |  |  |
